According to US8962843B2, “1,3,4-oxadiazole and 1,3,4-thiadiazole beta-lactamase inhibitors” (priority 2012, dated 2015):
Counter-ions that a name gives are not always drawn.

Key:
[1] = system: bacterial strains that express the class D cephalosporinase OXA-15; assay: Standard BLI potentiation MIC / synergy MIC assays, strains expressing OXA-15; format: cell-based, E. coli; details: in combination with a β-lactam; comparator Avibactam (CCC)
Outline: (§1)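 Broth microdilution in cation-adjusted Mueller Hinton broth per CLSI M07-A9, ~10^5 CFU/mL, 18-20 h at 37 °C with aeration; engineered E. coli carrying β-lactamase plasmids kept on 25 μg/mL tetracycline. β-lactam MIC measured in 2-fold dilutions (128-0.13 μg/mL) with BLI fixed at 4 μg/mL; sMIC titrates BLI against a fixed β-lactam concentration. MIC = lowest concentration without visible turbidity.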

[2] = system: bacterial strains that express KPC β-lactamases; assay: Standard BLI potentiation MIC / synergy MIC assays, strains expressing KPC β-lactamases; format: cell-based; details: in combination with a β-lactam; comparator Avibactam
Outline: as §1

SMILES	activity against bacterial strains that express the class D cephalosporinase OXA-15, compared with Avibactam [1]	activity and/or spectrum of activity against bacterial strains that express KPC β-lactamases, compared with Avibactam [2]
N=C(N)NCC1(c2nnc([C@@H]3CC[C@@H]4CN3C(=O)N4OS(=O)(=O)O)o2)CC1 [Compound 723, (2S,5R)-2-(5-(1-(guanidinomethyl)cyclopropyl)-1,3,4-oxadiazol-2-yl)-7-oxo-1,6-diazabicyclo[3.2.1]octan-6-yl hydrogen sulfate]	more active than Avibactam	more active than Avibactam for at least one, bacterial strain that expresses KPC β-lactamase and/or show a better spectrum of activity
CNCCc1nnc([C@@H]2CC[C@@H]3CN2C(=O)N3OS(=O)(=O)O)o1 [Compound 722, (2S,5R)-2-(5-(2-(methylamino)ethyl)-1,3,4-oxadiazol-2-yl)-7-oxo-1,6-diazabicyclo[3.2.1]octan-6-yl hydrogen sulfate]	more active than Avibactam	more active than Avibactam for at least one, bacterial strain that expresses KPC β-lactamase and/or show a better spectrum of activity
NC1CC(NCc2nnc([C@@H]3CC[C@@H]4CN3C(=O)N4OS(=O)(=O)O)o2)C1 (stereo partly drawn) [Compound 755, (2S,5R)-2-(5-(((3-aminocyclobutyl)amino)methyl)-1,3,4-oxadiazol-2-yl)-7-oxo-1,6-diazabicyclo[3.2.1]octan-6-yl hydrogen sulfate]	more active than Avibactam	more active than Avibactam for at least one, bacterial strain that expresses KPC β-lactamase and/or show a better spectrum of activity
O=C1N2C[C@@H](CC[C@H]2c2nnc(CCNC3CNC3)o2)N1OS(=O)(=O)O [Compound 745, (2S,5R)-2-(5-(2-(azetidin-3-ylamino)ethyl)-1,3,4-oxadiazol-2-yl)-7-oxo-1,6-diazabicyclo[3.2.1]octan-6-yl hydrogen sulfate]	more active than Avibactam	more active than Avibactam for at least one, bacterial strain that expresses KPC β-lactamase and/or show a better spectrum of activity
O=C1N2C[C@@H](CC[C@H]2c2nnc(CN3CCNCC3)o2)N1OS(=O)(=O)O [Compound 777, (2S,5R)-7-oxo-2-(5-(piperazin-1-ylmethyl)-1,3,4-oxadiazol-2-yl)-1,6-diazabicyclo[3.2.1]octan-6-yl hydrogen sulfate]	more active than Avibactam	more active than Avibactam for at least one, bacterial strain that expresses KPC β-lactamase and/or show a better spectrum of activity
N=C(N)Nc1nnc([C@@H]2CC[C@@H]3CN2C(=O)N3OS(=O)(=O)O)o1 [Compound 738, (2S,5R)-2-(5-guanidino-1,3,4-oxadiazol-2-yl)-7-oxo-1,6-diazabicyclo[3.2.1]octan-6-yl hydrogen sulfate]	more active than Avibactam	more active than Avibactam for at least one, bacterial strain that expresses KPC β-lactamase and/or show a better spectrum of activity
NC1CCN(Cc2nnc([C@@H]3CC[C@@H]4CN3C(=O)N4OS(=O)(=O)O)o2)CC1 [Compound 774, (2S,5R)-2-(5-((4-aminopiperidin-1-yl)methyl)-1,3,4-oxadiazol-2-yl)-7-oxo-1,6-diazabicyclo[3.2.1]octan-6-yl hydrogen sulfate]	more active than Avibactam	more active than Avibactam for at least one, bacterial strain that expresses KPC β-lactamase and/or show a better spectrum of activity
N=C(N)N1CC(c2nnc([C@@H]3CC[C@@H]4CN3C(=O)N4OS(=O)(=O)O)o2)C1 [Compound 709, (2S,5R)-2-(5-(1-carbamimidoylazetidin-3-yl)-1,3,4-oxadiazol-2-yl)-7-oxo-1,6-diazabicyclo[3.2.1]octan-6-yl hydrogen sulfate]	more active than Avibactam	more active than Avibactam for at least one, bacterial strain that expresses KPC β-lactamase and/or show a better spectrum of activity
N=C1NCC(c2nnc([C@@H]3CC[C@@H]4CN3C(=O)N4OS(=O)(=O)O)o2)N1 (stereo partly drawn) [Compound 767, (2S,5R)-2-(5-(2-iminoimidazolidin-4-yl)-1,3,4-oxadiazol-2-yl)-7-oxo-1,6-diazabicyclo[3.2.1]octan-6-yl hydrogen sulfate]	more active than Avibactam	more active than Avibactam for at least one, bacterial strain that expresses KPC β-lactamase and/or show a better spectrum of activity
O=C1N2C[C@@H](CC[C@H]2c2nnc(CCN3CCNCC3)o2)N1OS(=O)(=O)O [Compound 776, (2S,5R)-7-oxo-2-(5-(2-(piperazin-1-ybethyl)-1,3,4-oxadiazol-2-yl)-1,6-diazabicyclo[3.2.1]octan-6-yl hydrogen sulfate]	more active than Avibactam	more active than Avibactam for at least one, bacterial strain that expresses KPC β-lactamase and/or show a better spectrum of activity
O=C1N2C[C@@H](CC[C@H]2c2nnc([C@@H]3CCNC3)o2)N1OS(=O)(=O)O [Compound 759, (2S,5R)-7-oxo-2-(5((R)-pyrrolidin-3-yl)-1,3,4-oxadiazol-2-yl)-1,6-diazabicyclo[3.2.1]octan-6-yl hydrogen sulfate]	more active than Avibactam	more active than Avibactam for at least one, bacterial strain that expresses KPC β-lactamase and/or show a better spectrum of activity
O=C1N2C[C@@H](CC[C@H]2c2nnc(CCNC3CCNCC3)o2)N1OS(=O)(=O)O [Compound 770, (2S,5R)-7-oxo-2-(5-(2-(piperidin-4-ylamino)ethyl)-1,3,4-oxadiazol-2-yl)-1,6-diazabicyclo[3.2.1]octan-6-yl hydrogen sulfate]	more active than Avibactam	more active than Avibactam for at least one, bacterial strain that expresses KPC β-lactamase and/or show a better spectrum of activity
NCCc1nnc([C@@H]2CC[C@@H]3CN2C(=O)N3OS(=O)(=O)O)o1 [Compound 703, (2S,5R)-2-(5-(2-aminoethyl)-1,3,4-oxadiazol-2-yl)-7-oxo-1,6-diazabicyclo[3.2.1]octan-6-yl hydrogen sulfate]	more active than Avibactam	more active than Avibactam for at least one, bacterial strain that expresses KPC β-lactamase and/or show a better spectrum of activity
O=C1N2C[C@@H](CC[C@H]2c2nnc(CNC3CNC3)o2)N1OS(=O)(=O)O [Compound 726, (2S,5R)-2-(5-((azetidin-3-ylamino)methyl)-1,3,4-oxadiazol-2-yl)-7-oxo-1,6-diazabicyclo[3.2.1]octan-6-yl hydrogen sulfate]	more active than Avibactam	more active than Avibactam for at least one, bacterial strain that expresses KPC β-lactamase and/or show a better spectrum of activity
O=C1N2C[C@@H](CC[C@H]2c2nnco2)N1OS(=O)(=O)O [Compound 701, (2S,5R)-2-(1,3,4-oxadiazol-2-yl)-7-oxo-1,6-diazabicyclo[3.2.1]octan-6-yl hydrogen sulfate]	more active than Avibactam	more active than Avibactam for at least one, bacterial strain that expresses KPC β-lactamase and/or show a better spectrum of activity
N[C@H]1CN[C@@H](c2nnc([C@@H]3CC[C@@H]4CN3C(=O)N4OS(=O)(=O)O)o2)C1 [Compound 761, (2S,5R)-2-(5-((2R,4R)-4-aminopyrrolidin-2-yl)-1,3,4-oxadiazol-2-yl)-7-oxo-1,6-diazabicyclo[3.2.1]octan-6-yl hydrogen sulfate]	more active than Avibactam	more active than Avibactam for at least one, bacterial strain that expresses KPC β-lactamase and/or show a better spectrum of activity
N[C@H]1C[C@@H](NCc2nnc([C@@H]3CC[C@@H]4CN3C(=O)N4OS(=O)(=O)O)o2)C1 [Compound 756, (2S,5R)-2-(5-((((1s,3R)-3-aminocyclobutyl)amino)methyl)-1,3,4-oxadiazol-2-yl)-7-oxo-1,6-diazabicyclo[3.2.1]octan-6-yl hydrogen sulfate]	more active than Avibactam	more active than Avibactam for at least one, bacterial strain that expresses KPC β-lactamase and/or show a better spectrum of activity
